# Read-outs that look alike come from different tables or passages of the source.
# Key:
# [1] = test system: SOX17 (endoderm marker) in RUES2-GLR cells; assay: DevTox GLR-Endo assay: decrease in percent SOX17-positive cells (AEID 3094, Sox17_dn); conditions: for Hit Call: Table S2, SOX17-positive cells, cutoff 3*bmad; for HIT−CALL: tcpl plot AEID3094, COFF 20.3
# Procedure: (§1) The total test chemical incubation period was 48 h.
# (§2) Assay plate controls included non-differentiated pluripotent cells maintained in complete Essential 8 Flex medium (baseline control), endoderm differentiated cells (differentiation control), endoderm differentiated cells treated with DMSO (0.2%) (solvent control), and TGF-ß receptor inhibitor SB431542 (1 µM)-treated cells (developmental toxicant-positive control) (Figure S3). All experiments were completed with a minimum of four biological replicates (n = 4).
# (§3) (Supplementary Materials).
# in vitro = conditions: human
# Procedure: as §1, §2, §3
# RUES2-GLR cells = assay: DevTox GLR-Endo assay: decrease in total cell count, cytotoxicity (AEID 3098, CellCount_dn); conditions: for Emax: Homo sapiens, read-out: Cell Count % Max Inhibition
# Procedure: as §1, §2, §3
# [2] = test system: SOX17 (endoderm marker) in RUES2-GLR cells; assay: DevTox GLR-Endo assay: increase in percent SOX17-positive cells (AEID 3093, Sox17_up); type: cell-based, human; design: tp (winning model): unit not given here; conditions: for Emax: Homo sapiens; for HIT−CALL: tcpl plot AEID3093, COFF 20.3
# Procedure: as §1, §3
# H9 human ESC line = conditions: cited from earlier work
# [3] = cited from earlier work; for Development Toxicant Classification: Table S2; for Classification: developmental toxicant classification (Teratogen / Non-Teratogen) of reference and training chemicals, ref DOI per chemical: 10.1093/toxsci/kft239, 10.1093/toxsci/kfaa014, 10.1177/026119290203000204, 10.1038/s41598-020-59542-x; for DT Class.: developmental toxicant classification
# [4] = test system: SOX2 (ectoderm and pluripotency marker) in RUES2-GLR cells; assay: DevTox GLR-Endo assay: increase in percent SOX2-positive cells (AEID 3095, Sox2_up); conditions: for AC50 / Emax: Homo sapiens; for AC50: read-out: ga (winning model); for Emax: read-out: tp (winning model); for MAX_MEAN: tcpl plot AEID3095, maximum mean response; for MAX_MED: tcpl plot AEID3095, maximum median response;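 on all read-outs here: cells exposed to test chemicals for 48 h in total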
# [5] = test system: BRA (mesoderm marker) in RUES2-GLR cells; assay: DevTox GLR-Endo assay: increase in percent BRA-positive cells (AEID 3096, Bra_up); type: cell-based, human; conditions: for HIT−CALL: tcpl plot AEID3096, COFF 0.774; for MAX_MEAN: tcpl plot AEID3096, maximum mean response; for MAX_MED: tcpl plot AEID3096, maximum median response
# Procedure: as §1, §3
# [6] = Homo sapiens, 48 h, read-out: DevTox-GLR Endo AC50 (µM), SOX17 half-maximal activity concentration, 48 h exposure
# [7] = Homo sapiens, read-out: DevTox % Max Inhibition
# [8] = Homo sapiens, read-out: MAX_MEAN
# [9] = Homo sapiens, read-out: MAX_MED
# [10] = Homo sapiens, read-out: ga (winning model), tcpl plot AEID3094, gain parameter of winning curve fit (log concentration, µM axis), hit calls only (converted)
# [11] = Homo sapiens, read-out: tp (winning model)
# [12] = tcpl plot AEID3093, maximum mean response, read-out: MAX_MEAN
# [13] = tcpl plot AEID3093, maximum median response, read-out: MAX_MED
# [14] = cytotoxicity half-maximal concentration
# [15] = chemicals common with quickPredict
# [16] = Table S2, percent SOX17-positive cells, 48 h exposure
compound,measurement,setting,value
CN1CCN2c3ccccc3Cc3ccccc3C2C1 (stereo not drawn) [Mianserin],DevTox ACC,[1]; 48 h,13.5618 µM
same,AC50,[1]; [6],34.9 µM
same,Emax,[1]; [7],101%
same,Emax,[1]; [8],101%
same,Emax,[1]; [9],101%
same,AC50,[1]; [10],34.7 µM
same,Emax,[1]; [11],122%
same,Hit Call,[1],Positive
same,HIT−CALL,[1],1
same,CC50 at 48 h,in vitro,33.6 µM
same,Emax,RUES2-GLR cells,97.7%
same,Cell Count ACC,"RUES2-GLR cells; human, 48 h",18.6008 µM
same,Emax,[2]; [12],2.7%
same,Emax,[2]; [13],3.98%
same,HIT−CALL,[2],0
same,hPST TC50,H9 human ESC line; [14],60 µM
same,hPST TC50,H9 human ESC line; hPST cytotoxicity,60 µM
same,Development Toxicant Classification,[3],Positive
same,Classification,[3],Teratogen
same,DT Class.,[3]; chemicals common with hPST,Pos
same,AC50,[4],85.1 µM
same,Emax,[4],13.7%
same,MAX_MEAN,[4],4.94 Percent Activity
same,MAX_MED,[4],5.45 Percent Activity
CC/C(=C(/CC)c1ccc(O)cc1)c1ccc(O)cc1 [Diethylstilbestrol],AC50,[1]; [6],0.64 µM
same,Emax,[1]; [7],101%
same,Emax,[1]; [8],101%
same,Emax,[1]; [9],101%
same,AC50,[1]; [10],0.644 µM
same,Emax,[1]; [11],101%
same,Hit Call,[1],Positive
same,DevTox-GLR Endo ACC,"[1]; activity concentration at cutoff, SOX17-positive cells, 48 h exposure",0.54 µM
same,HIT−CALL,[1],1
same,CC50 at 48 h,in vitro,0.71 µM
same,Emax,RUES2-GLR cells,95.7%
same,Cell Count ACC,"RUES2-GLR cells; human, 48 h",0.5959 µM
same,DevTox-GLR Endo CC,"RUES2-GLR cells; human, 48 h",0.60 µM
same,Emax,[2]; [12],6.93%
same,Emax,[2]; [13],6.73%
same,HIT−CALL,[2],0
same,hPST TC50,H9 human ESC line; [14],4.4 µM
same,hPST TC50,H9 human ESC line; hPST cytotoxicity,4.4 µM
same,Development Toxicant Classification,[3],Positive
same,Classification,[3],Teratogen
same,DT Class.,[3]; chemicals common with hPST,Pos
same,DT Class.,[3]; [15],Pos
same,AC50,[4],2.13 µM
same,Emax,[4],3.84%
same,MAX_MEAN,[4],6.09 Percent Activity
same,MAX_MED,[4],4.84 Percent Activity
COc1cc2ncnc(Nc3ccc(F)c(Cl)c3)c2cc1OCCCN1CCOCC1 [Gefitinib],AC50,[1]; [6],5.75 µM
same,Emax,[1]; [8],102%
same,Emax,[1]; [9],101%
same,AC50,[1]; [10],5.75 µM
same,Emax,[1]; [11],101%
same,DevTox ACC,[1]; [16],4.584 µM
same,CC50 at 48 h,in vitro,6.6 µM
same,Cell Count ACC,"RUES2-GLR cells; human, 48 h",5.08 µM
same,Emax,[2]; [12],10.5%
same,Emax,[2]; [13],7.83%
same,HIT−CALL,[2],0
same,hPST TC50,H9 human ESC line; [14],10 µM
same,hPST TC50,H9 human ESC line; hPST cytotoxicity,10 µM
same,AC50,[4],6.35 µM
same,Emax,[4],3.17%
same,MAX_MEAN,[4],5.99 Percent Activity
same,MAX_MED,[4],4.85 Percent Activity
COc1cccc2c1C(=O)c1c(O)c3c(c(O)c1C2=O)C[C@@](O)(C(=O)CO)C[C@@H]3O[C@H]1C[C@H](N)[C@H](O)[C@H](C)O1 [Doxorubicin],AC50,[1]; [6],0.0019 µM
same,AC50,[1]; [10],0.00186 µM
same,Hit Call,[1],Positive
same,DevTox ACC,[1]; [16],0.001242 µM
same,HIT−CALL,[1],1
same,CC50 at 48 h,in vitro,0.0033 µM
same,Emax,RUES2-GLR cells,93.9%
same,Cell Count ACC,"RUES2-GLR cells; human, 48 h",0.001329 µM
same,Emax,[2]; [12],50.4%
same,Emax,[2]; [13],51.7%
same,HIT−CALL,[2],1
same,tp (winning model),"[2]; tcpl plot AEID3093, top of winning curve fit, hit calls only",48.7
same,hPST TC50,H9 human ESC line; [14],<0.3 µM
same,hPST TC50,H9 human ESC line; hPST cytotoxicity,< 0.3 µM
same,Development Toxicant Classification,[3],Positive
same,DT Class.,[3]; chemicals common with hPST,Pos
same,AC50,[4],0.64 µM
same,Emax,[4],19.8%
same,MAX_MEAN,[4],9.13 Percent Activity
same,MAX_MED,[4],8.86 Percent Activity
NNC(=O)c1ccncc1 [Isoniazid],Emax,[1]; [7],3.99%
same,Emax,[1]; [8],3.77%
same,Emax,[1]; [9],3.99%
same,Hit Call,[1],Negative
same,DevTox ACC,[1]; [16],>200 µM
same,HIT−CALL,[1],0
same,Emax,RUES2-GLR cells,7.42%
same,Cell Count ACC,"RUES2-GLR cells; human, 48 h",>200 µM
same,Emax,[2]; [12],14%
same,Emax,[2]; [13],13.9%
same,HIT−CALL,[2],0
same,HIT−CALL,[5],0
same,MAX_MEAN,[5],0.794 Percent Activity
same,MAX_MED,[5],0.781 Percent Activity
same,Development Toxicant Classification,[3],Negative
same,Classification,[3],Non-Teratogen
same,DT Class.,[3]; [15],Neg
same,MAX_MEAN,[4],0.685 Percent Activity
same,MAX_MED,[4],0.538 Percent Activity
Nc1cccc2c1CN(C1CCC(=O)NC1=O)C2=O (stereo not drawn) [Lenalidomide],effect on SOX17-positive cells (in words),[1]; 48 h exposure during directed endoderm differentiation,significant reductions in the SOX17-positive sub-population
same,IC50,"[1]; Homo sapiens, 48 h",130 nM
same,Emax,[1]; [7],78.9%
same,Emax,[1]; [8],78.8%
same,Emax,[1]; [9],78.9%
same,AC50,[1]; [10],0.337 µM
same,Emax,[1]; [11],79.2%
same,Hit Call,[1],Positive
same,DevTox ACC,[1]; [16],0.05026 µM
same,% Max Inhibition,"[1]; maximum inhibition of SOX17-positive cells, reference chemical testing, 48 h exposure",44%
same,HIT−CALL,[1],1
same,Emax,RUES2-GLR cells,44.2%
same,Cell Count ACC,"RUES2-GLR cells; Table S2, 48 h exposure",0.1174 µM
same,effect on cell counts (in words),"RUES2-GLR cells; reference chemical testing, increasing concentrations",cell counts remained constant
same,Emax,[2]; [12],10.3%
same,Emax,[2]; [13],9.38%
same,HIT−CALL,[2],0
same,HIT−CALL,[5],0
same,MAX_MEAN,[5],0.843 Percent Activity
same,MAX_MED,[5],0.842 Percent Activity
same,Development Toxicant Classification,[3],Positive
same,Classification,[3],Teratogen
same,Developmental Toxicant Classification,[3]; reference chemicals,Positive
same,MAX_MEAN,[4],0.674 Percent Activity
same,MAX_MED,[4],0.697 Percent Activity
CC1=C2C[C@H]3[C@@H](CC=C4C[C@@H](O)CC[C@@]43C)[C@@H]2CC[C@]12O[C@@H]1C[C@H](C)CN[C@H]1[C@H]2C [Cyclopamine],hit call designation (in words),[1]; DevTox GLR-Endo prediction against developmental toxicant classification,borderline calls
same,Emax,[1]; [7],22.7%
same,Emax,[1]; [8],34.8%
same,Emax,[1]; [9],22.7%
same,Emax,"[1]; Homo sapiens, read-out: maximum observed effect level class (% max inhibition)",20 to 80%
same,Hit Call,[1],Negative
same,DevTox ACC,[1]; [16],>200 µM
same,HIT−CALL,[1],0
same,Emax,RUES2-GLR cells,9.2%
same,Cell Count ACC,"RUES2-GLR cells; Table S2, 48 h exposure",>200 µM
same,Emax,[2]; read-out: MAX_MEAN,3.34%
same,Emax,[2]; read-out: MAX_MED,3.36%
same,HIT−CALL,[2],0
same,HIT−CALL,[5],1
same,MAX_MEAN,[5],4.76 Percent Activity
same,MAX_MED,[5],1.9 Percent Activity
same,Development Toxicant Classification,[3],Positive
same,Classification,[3],Teratogen
same,DT Class.,[3]; [15],Pos
same,HIT−CALL,[4],0
same,MAX_MEAN,[4],5.31 Percent Activity
same,MAX_MED,[4],0.885 Percent Activity

# Reference: publication PMC9321663, “The DevTox Germ Layer Reporter Platform: An Assay Adaptation of the Human Pluripotent Stem Cell Test” (Toxics, 2022)
